A word on the kinact/KI: it is the second-order rate constant of inactivation.

The values that follow come from PubChem BioAssay AID651865 (The Scripps Research Institute Molecular Screening Center, 2012).

The experiment concerns the target Protein-arginine deiminase type-2 (Homo sapiens) (UniProt Q9Y2J8). As to the kind of experiment: PubChem AID 651865. Particulars: recombinant PAD2, BAEE citrulline colorimetric, inactivation kinetics; active compounds read high.

Sequence of Protein-arginine deiminase type-2 (Homo sapiens) (Q9Y2J8 whole entry, looked up): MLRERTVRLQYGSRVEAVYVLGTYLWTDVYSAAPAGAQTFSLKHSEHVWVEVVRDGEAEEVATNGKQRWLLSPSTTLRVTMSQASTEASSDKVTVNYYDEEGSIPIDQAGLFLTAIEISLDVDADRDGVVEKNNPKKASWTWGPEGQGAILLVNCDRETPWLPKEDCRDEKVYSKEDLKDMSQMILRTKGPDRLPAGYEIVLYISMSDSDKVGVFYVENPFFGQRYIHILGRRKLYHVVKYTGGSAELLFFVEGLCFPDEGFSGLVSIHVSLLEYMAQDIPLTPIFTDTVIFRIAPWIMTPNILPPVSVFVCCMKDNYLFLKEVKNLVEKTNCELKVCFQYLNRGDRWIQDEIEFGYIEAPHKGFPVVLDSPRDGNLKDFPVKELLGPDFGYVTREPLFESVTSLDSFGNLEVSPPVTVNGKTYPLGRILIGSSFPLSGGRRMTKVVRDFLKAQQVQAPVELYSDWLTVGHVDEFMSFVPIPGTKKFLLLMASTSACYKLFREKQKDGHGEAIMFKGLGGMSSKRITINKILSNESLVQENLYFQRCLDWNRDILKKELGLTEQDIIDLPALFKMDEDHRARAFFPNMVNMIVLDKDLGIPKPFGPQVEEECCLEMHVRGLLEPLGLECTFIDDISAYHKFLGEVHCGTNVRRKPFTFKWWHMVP

Turning to `NC1=CC(=O)c2ccc(-c3cccc(C(=O)O)n3)nc2C1=O`, the kinact/KI is 122 M⁻¹ s⁻¹.
